Test results published in ChEMBL document CHEMBL1165874, “Carbonic anhydrase inhibitors: synthesis and inhibition of the human cytosolic isozymes I and II and transmembrane isozymes IX, XII (cancer-associated) and XIV with 4-substituted 3-pyridinesulfonamides” (Eur J Med Chem, 2010).

Target: Carbonic anhydrase 9 (Homo sapiens, UniProt Q16790)

Row | Ki [nM] | Compound
1 | 7.8 | CC1CC=NN1c1ccncc1S(N)(=O)=O (configuration not stated)
2 | 7.9 | NS(=O)(=O)c1cnccc1Oc1ccc(F)cc1
3 | 9.6 | NS(=O)(=O)c1cnccc1Sc1nc2ccc([N+](=O)[O-])cc2s1
4 | 6.3 | C#CCSc1ccncc1S(N)(=O)=O
5 | 7.2 | N#Cc1ccc(Oc2ccncc2S(N)(=O)=O)cc1
6 | 7.7 | NS(=O)(=O)c1cnccc1Sc1nnns1

Target: Carbonic anhydrase 14 (Homo sapiens, UniProt Q9ULX7)
Sequence (Q9ULX7 whole entry): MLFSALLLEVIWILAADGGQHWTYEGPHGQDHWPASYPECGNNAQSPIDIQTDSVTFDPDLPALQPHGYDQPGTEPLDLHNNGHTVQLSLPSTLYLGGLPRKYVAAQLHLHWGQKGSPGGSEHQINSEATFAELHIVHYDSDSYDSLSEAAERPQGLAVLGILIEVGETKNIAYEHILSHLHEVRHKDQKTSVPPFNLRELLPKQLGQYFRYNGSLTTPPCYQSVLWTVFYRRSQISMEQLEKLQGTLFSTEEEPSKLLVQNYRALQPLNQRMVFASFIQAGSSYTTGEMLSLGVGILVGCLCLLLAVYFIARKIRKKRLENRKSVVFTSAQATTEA

Row | Ki [nM] | Compound
7 | 104 | NS(=O)(=O)c1ccc(S(=O)(=O)Nc2cccc3c(Cl)c[nH]c23)cc1
